Measurements reported in patent US10786488B2, “Substituted quinolizine derivatives useful as HIV integrase inhibitors” (MERCK SHARP & DOHME CORP., priority 2017, dated 2020).

How the values were obtained:
[1] = Stability of compounds in whole blood (rat); type: in vitro ADME; conditions: 1 μM compound, 37° C.
Protocol: (§1) Selected compounds of the present invention (1 μM) were incubated with whole blood (with heparin) from rat, dog and human. The samples were incubated for 0, 0.5, 1 and 2 hours in a 95% humidified incubator at 37° C. with 5% CO2. At each time point, the samples were quenched with acetonitrile containing an appropriate internal standard. The samples were then vortex-mixed and centrifuged at 2,500×g for 20 minutes. The supernatants were transferred to clean plates and analyzed using LC-MS/MS. The stability of the analyte was assessed by determining the percentage of drug loss over the course of time.

[2] = Stability of compounds in whole blood (human); type: in vitro ADME; conditions: 1 μM compound, 37° C.
Protocol: as §1

[3] = Stability of compounds in whole blood (dog); type: in vitro ADME; conditions: 1 μM compound, 37° C.
Protocol: as §1

[4] = Dog pharmacokinetic studies, oral administration to fasted Beagle dogs; type: in vivo; conditions: dose equivalent to 10 mg/kg of Compound Int-1
Protocol: Male Beagle Dogs (Marshall Farms) were used for the pharmacokinetic studies. Studies were conducted under a protocol approved by the WP-IACUC (Animal Procedure Statement #2018-600787-MAR). Following overnight-fasting, dogs were dosed orally with either Compound Int-1 at 10 mg/kg or one of the respective prodrugs at the dose equivalent to 10 mg/kg of Compound Int-1 formulated as a suspension in Orablend® SF. Dosing was followed by 15 mL water rinse via oral gavage. Food was returned at 4 hours after dosing. Blood (0.5-mL) was drawn at pre-dose, 0.25, 0.5, 1, 2, 4, 6, 24, 30, 48, 54 and 72 hours post-dosing into EDTA-coated collection tubes containing 25 μL of 2 mM dichlorvos solution in water. The tubes were kept chilled prior to blood collection and throughout plasma separation. The plasma was separated by centrifugation (2 minutes at 10000 g). After processing, 10 uL of 10% formic acid was added to each 200 uL of plasma. Acidified plasma samples were immediately frozen and kept at −70° C. until analysis by LC-MS/MS.
Mean [±SD] Pharmacokinetic Parameters for Compounds after Oral Administration to Fasted Beagle Dogs at Dose Equivalent to 10 mg/kg of Compound Int-1.

Row | SMILES | Remaining at 2 hours [1] [%] | Remaining at 2 hours [2] [%] | Remaining at 2 hours [3] [%] | absorption versus metabolite Compound Int-1 [4]
1 | CCOC(=O)Oc1c2n(cc(C(=O)NCc3ccc(F)cc3F)c1=O)C[C@@H]1OCCC[C@]1(C)C2=O [Compound 1] | 0 | 24 | 19 | 
2 | CC(C)OC(=O)OCOc1c2n(cc(C(=O)NCc3ccc(F)cc3F)c1=O)C[C@@H]1OCCC[C@]1(C)C2=O [Compound 3] |  |  |  | significant increase in absorption
3 | CCOC(=O)OCOc1c2n(cc(C(=O)NCc3ccc(F)cc3F)c1=O)C[C@@H]1OCCC[C@]1(C)C2=O [Compound 4] |  |  |  | significant increase in absorption
